Experimental data: ChEMBL document CHEMBL1145364, “A novel artemisinin-quinine hybrid with potent antimalarial activity” (Bioorg Med Chem Lett, 2007)

Key:
Format in all cases: functional, organism-based
Plasmodium falciparum [1] = test: Antimalarial activity against Plasmodium falciparum 3D7 after 72 hrs by pLDH assay; conditions: 3D7, 72 h
Plasmodium falciparum [2] = test: Antimalarial activity against Plasmodium falciparum 3D7 after 48 hrs by pLDH assay; conditions: 3D7, 48 h
Plasmodium falciparum [3] = test: Antimalarial activity against chloroquine-resistant Plasmodium falciparum FcB1 after 72 hrs by pLDH assay; conditions: FcB1, 72 h
Plasmodium falciparum [4] = test: Antimalarial activity against chloroquine-resistant Plasmodium falciparum FcB1 after 48 hrs by pLDH assay; conditions: FcB1, 48 h

SMILES	IC50 (Plasmodium falciparum [1]) [nM]	IC50 (Plasmodium falciparum [2]) [nM]	IC50 (Plasmodium falciparum [3]) [nM]	IC50 (Plasmodium falciparum [4]) [nM]
COc1ccc2nccc([C@@H](O)C3CC4CCN3CC4CC(=O)O[C@@H]3OC4O[C@]5(C)CCC6[C@H](C)CCC([C@H]3C)[C@@]46OO5)c2c1 (some centres not stated)	10.4	8.95	10.2	9.59
C[C@@H]1CC[C@H]2[C@@H](C)C(=O)O[C@@H]3O[C@@]4(C)CC[C@@H]1[C@]32OO4 [ARTEMISININ]	45.5	49.4	55	50
C=C[C@H]1CN2CC[C@H]1C[C@H]2[C@H](O)c1ccnc2ccc(OC)cc12 [QUININE]	73.5	149	75.3	96.8
